Experimental data from article PMC5447021, “TNF Lectin-Like Domain Restores Epithelial Sodium Channel Function in Frameshift Mutants Associated with Pseudohypoaldosteronism Type 1B” (Frontiers in Immunology, 2017).

Tests used:
αR438fs = assay: Membrane abundance of αR438fs; assay type: cell-based, human; settings: 200 nM, relative to WT control (=1)
Method: Cell surface biotinylation was performed as previously described ([26]). In brief, A549 cells or transiently transfected HEK-293 cells were grown in 10 cm dishes in 37°C, 5% CO2 incubator in DMEM medium supplemented with 5% FBS. […] Medium was aspirated, and then cells were washed twice with 10 ml ice-cold phosphate-buffered saline (PBS), covered with 2.5 mg EZ-Link Sulfo-NHS-SS-Biotin (Thermo Scientific, Rockford, USA), dissolved in 10 ml ice-cold PBS, and incubated at 4°C with gentle agitation for 30 min. Fifty milliliters of quenching solution were added to cells; then cells were scraped in solution and transferred to fresh 50 ml tube. Cell suspension was centrifuged at 500 × g for 3 min. Supernatant was discarded, and 5 ml of Tris-buffered saline (TBS) was added to the cell pellet. The cell pellet was resuspended and centrifuged at 500 × g for 3 min. Supernatant was discarded and cell pellet was resuspended in lysis buffer containing protease inhibitor cocktail (10 µM pepstatin A, 10 µM phenylmethylsulfonyl fluoride, and 10 µM leupeptin) and transferred to fresh 1.5 ml centrifuge tube. Cell pellet was then homogenized on ice by ultrasonication using 1 s bursts and incubated on ice for at least 30 min. Intact cells and nuclei were pelleted by centrifugation at 10,000 × g for 2 min under cooling conditions. […] Exposed films were scanned and quantified using ImageJ (NIH, MD, USA). […]

β-ENaC = settings: HEK-293, 5 and 10 min; cited from earlier work
[1] = tested on: αT169fs (co-expressed with βγ-ENaC); assay: Whole-cell patch clamp, αT169fs + WT βγ; assay type: cell-based, human; settings: read-out: EC50, solnatide, HEK-293, whole-cell, -100 mV, n = 9
Method: Point mutations of α-, β-, γ- and δ-hENaC and PHA1B frameshift mutations of α-hENaC were prepared with the QuikChange Lightning Site-Directed Mutagenesis Kit (Agilent Technologies, CA, USA). Mutagenic primers were designed individually with the Primer Design Program provided on the producer’s website or for the frameshift mutations the same base changes as reported in patients (see Table 2) were performed. Primers were ordered from Sigma-Aldrich, Vienna, Austria.
HEK-293 cells were transfected 1 day after cell seeding using X-tremeGENE HP DNA transfection reagent (Roche Diagnostics, Mannheim, Germany) according to the manufacturer’s protocol. A set of WT or mutant αβγ- or δβγ-hENaC, or α-, β-, γ-, or δ-hENaC alone was used, and the ratio of DNA to transfection reagent was 1:3. The expression was highest 48–72 h after transfection.
Electrophysiological experiments were performed as described in detail by Shabbir et al. ([16]). […] Currents were recorded with the patch clamp method in the whole-cell mode. The chamber contained 1 ml of the bath solution of the following composition (in mM): 145 NaCl, 2.7 KCl, 1.8 CaCl2, 2 MgCl2, 5.5 glucose, and 10 HEPES, adjusted to pH 7.4 with 1 M NaOH solution. Micropipettes were pulled from thin-walled borosilicate glass capillaries (Harvard Apparatus, Holliston, MA, USA) with a DMZ Zeitz Puller to obtain electrode resistances ranging from 2 to 5 MΩ. […]

For `C[C@@H]1NC(=O)CNC(=O)[C@H](CCC(=O)O)NC(=O)[C@@H]2CCCN2C(=O)[C@H]([C@@H](C)O)NC(=O)[C@H](CCC(=O)O)NC(=O)[C@H](CCCNC(=N)N)NC(=O)[C@H](CCC(N)=O)NC(=O)CNC(=O)[C@@H](N)CSSC[C@@H](C(=O)O)NC(=O)[C@H](Cc2ccc(O)cc2)NC(=O)[C@H](Cc2c[nH]c3ccccc23)NC(=O)[C@@H]2CCCN2C(=O)[C@H](CCCCN)NC(=O)[C@H](C)NC(=O)[C@H](CCC(=O)O)NC1=O` [solnatide, L-cysteine, L-cysteinylglycyl-L-glutaminyl-L-arginyl-L-α-glutamyl-L-threonyl-L-prolyl-L-α-glutamylglycyl-L-alanyl-L-α-glutamyl-L-alanyl-L-lysyl-L-prolyl-L-tryptophyl-L-tyrosyl-, cyclic (1→17)-disulfide], the “Membrane abundance, solnatide 5 min” value (αR438fs; 5 min, own control 0.90 ± 0.07, p < 0.001 vs control) is given as 1.39 ± 0.14, the “Membrane abundance, solnatide 10 min” value (αR438fs; 10 min, own control 0.90 ± 0.07) is given as 0.87 ± 0.10 and the “Membrane abundance, solnatide” value (β-ENaC) is given as “only slight”. For the same compound, the EC50 [1] was 58.3 ± 5.2 nM.
